Results: PubChem BioAssay (NCI)
Values joined by “and” are separate entries in the source; they are usually repeats but may differ in a detail not shown here. Identical values can stand only once.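 A five-concentration, 48-hour dose response in 96-well plates underlies each endpoint, interpolated linearly between surrounding concentrations. GI50 marks 50% less growth. At the TGI there is no net growth.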

Key:
Assay in all cases: NCI-60 cell line screen, 48 h
NCI-H522 lung = system: NCI-H522 lung
MDA-N = system: MDA-N
SNB-78 CNS = system: SNB-78 CNS
DU-145 prostate = system: DU-145 prostate
SK-OV-3 ovarian = system: SK-OV-3 ovarian
UO-31 renal = system: UO-31 renal
SK-MEL-2 melanoma = system: SK-MEL-2 melanoma
NCI-H23 lung = system: NCI-H23 lung
K-562 leukemia = system: K-562 leukemia
M19-MEL melanoma = system: M19-MEL melanoma
KM20L2 colon = system: KM20L2 colon
HCT-116 colon = system: HCT-116 colon
SR leukemia = system: SR leukemia
SK-MEL-5 melanoma = system: SK-MEL-5 melanoma
OVCAR-3 ovarian = system: OVCAR-3 ovarian
HOP-62 NSCLC = system: HOP-62 NSCLC
CCRF-CEM leukemia = system: CCRF-CEM leukemia
DMS 114 small cell lung = system: DMS 114 small cell lung
MDA-MB-231 breast = system: MDA-MB-231 breast
HS 578T breast = system: HS 578T breast
BT-549 breast = system: BT-549 breast
NCI-H460 lung = system: NCI-H460 lung
MCF7 breast = system: MCF7 breast
PC-3 prostate = system: PC-3 prostate
HCT-15 colon = system: HCT-15 colon
LXFL 529 NSCLC = system: LXFL 529 NSCLC
T-47D breast = system: T-47D breast
RPMI-8226 leukemia = system: RPMI-8226 leukemia
SF-268 CNS = system: SF-268 CNS
A498 renal = system: A498 renal
RXF-631 renal = system: RXF-631 renal
SF-295 CNS = system: SF-295 CNS
DLD-1 colon = system: DLD-1 colon
OVCAR-8 ovarian = system: OVCAR-8 ovarian
HL-60(TB) leukemia = system: HL-60(TB) leukemia
A549 NSCLC = system: A549 NSCLC
HT29 colon = system: HT29 colon
CAKI-1 renal = system: CAKI-1 renal
M14 melanoma = system: M14 melanoma
ACHN renal = system: ACHN renal
MALME-3M melanoma = system: MALME-3M melanoma
786-0 renal = system: 786-0 renal
LOX IMVI melanoma = system: LOX IMVI melanoma
MOLT-4 leukemia = system: MOLT-4 leukemia
SNB-75 CNS = system: SNB-75 CNS
EKVX NSCLC = system: EKVX NSCLC
NCI-H226 lung = system: NCI-H226 lung
SW-620 colon = system: SW-620 colon
SF-539 CNS = system: SF-539 CNS
SNB-19 CNS = system: SNB-19 CNS
HOP-92 NSCLC = system: HOP-92 NSCLC
XF 498 CNS = system: XF 498 CNS
UACC-257 melanoma = system: UACC-257 melanoma

`CN1C(=O)CC2(C)c3cc(O)ccc3N(C)C12` (stereo not given) was tested, and the GI50 (NCI-H522 lung) was 15.6 µM, the TGI (NCI-H522 lung) was 33.2 µM and 60 µM and the GI50 (MDA-N) was 12.9 µM. For the same molecule, the TGI (MDA-N) was 25.7 µM and 31.7 µM, the TGI (SNB-78 CNS) was greater than 100 µM and the GI50 (DU-145 prostate) was greater than 75 µM. The TGI (DU-145 prostate) was greater than 75 µM, the GI50 (SK-OV-3 ovarian) was greater than 75 µM and the TGI (SK-OV-3 ovarian) was greater than 100 µM. The TGI (UO-31 renal) was greater than 90.9 µM, the GI50 (SK-MEL-2 melanoma) was greater than 75 µM and the TGI (SK-MEL-2 melanoma) was greater than 94.3 µM. The GI50 (NCI-H23 lung) was 25.7 µM, the TGI (NCI-H23 lung) was 75 µM and 61.9 µM and the GI50 (K-562 leukemia) was 11.6 µM. For the same molecule, the TGI (K-562 leukemia) was 31.3 µM and 70.8 µM, the TGI (M19-MEL melanoma) was 46.2 µM and the TGI (KM20L2 colon) was greater than 100 µM. The GI50 (HCT-116 colon) was 22.8 µM, the TGI (HCT-116 colon) was 51.8 µM and 42.1 µM and the GI50 (SR leukemia) was 13.9 µM. The TGI (SR leukemia) was 45.2 µM and 51.5 µM, the GI50 (SK-MEL-5 melanoma) was 54.1 µM and the TGI (SK-MEL-5 melanoma) was 75 µM and 50.5 µM. The GI50 (OVCAR-3 ovarian) was 16.1 µM, the TGI (OVCAR-3 ovarian) was 32 µM and 30.9 µM and the TGI (HOP-62 NSCLC) was 60.7 µM. For the same molecule, the GI50 (CCRF-CEM leukemia) was 9.66 µM, the TGI (CCRF-CEM leukemia) was 40.8 µM and 62.7 µM and the TGI (DMS 114 small cell lung) was greater than 100 µM. For the same molecule, the TGI (MDA-MB-231 breast) was 40.6 µM and 34.1 µM, the GI50 (HS 578T breast) was 23.7 µM and the TGI (HS 578T breast) was 69.3 µM and > 90.2 µM. For the same molecule, the GI50 (BT-549 breast) was 30.3 µM, the TGI (BT-549 breast) was 75 µM and 30.8 µM and the GI50 (NCI-H460 lung) was 13.9 µM. For the same molecule, the TGI (NCI-H460 lung) was 26 µM and > 82.3 µM, the GI50 (MCF7 breast) was 14 µM and the TGI (MCF7 breast) was 27.8 µM and 35.8 µM. For the same molecule, the GI50 (PC-3 prostate) was greater than 75 µM, the TGI (PC-3 prostate) was greater than 100 µM and the GI50 (HCT-15 colon) was 14.3 µM. For the same molecule, the TGI (HCT-15 colon) was 25.9 µM and 41.9 µM, the TGI (LXFL 529 NSCLC) was greater than 59.2 µM and the GI50 (T-47D breast) was greater than 75 µM. For the same molecule, the TGI (T-47D breast) was greater than 91.2 µM, the GI50 (RPMI-8226 leukemia) was 20.3 µM and the TGI (RPMI-8226 leukemia) was 64.8 µM and 67.3 µM. For the same molecule, the GI50 (SF-268 CNS) was 38.6 µM, the TGI (SF-268 CNS) was 75 µM and 60.6 µM and the GI50 (A498 renal) was greater than 75 µM. For the same molecule, the TGI (A498 renal) was > 75 µM and 68.2 µM, the TGI (RXF-631 renal) was greater than 100 µM and the GI50 (SF-295 CNS) was 13 µM. For the same molecule, the TGI (SF-295 CNS) was 23.7 µM and 54.9 µM, the TGI (DLD-1 colon) was greater than 100 µM and the TGI (OVCAR-8 ovarian) was 61.4 µM. The GI50 (HL-60(TB) leukemia) was 14.2 µM, the TGI (HL-60(TB) leukemia) was 31.5 µM and 70 µM and the TGI (A549 NSCLC) was 75 µM and > 100 µM. The GI50 (HT29 colon) was 21.4 µM, the TGI (HT29 colon) was 64.5 µM and 51 µM and the GI50 (CAKI-1 renal) was 32.4 µM. The TGI (CAKI-1 renal) was 63.5 µM and > 100 µM, the TGI (M14 melanoma) was 44.6 µM and the GI50 (ACHN renal) was 25.6 µM. The TGI (ACHN renal) was 75 µM and > 100 µM, the GI50 (MALME-3M melanoma) was greater than 75 µM and the TGI (MALME-3M melanoma) was > 75 µM and 93.5 µM. For the same molecule, the GI50 (786-0 renal) was 23.8 µM, the TGI (786-0 renal) was 58.1 µM and 28.6 µM and the GI50 (LOX IMVI melanoma) was 14.8 µM. For the same molecule, the TGI (LOX IMVI melanoma) was 38.9 µM and 32.6 µM, the TGI (MOLT-4 leukemia) was 44.7 µM and 40.1 µM and the GI50 (SNB-75 CNS) was greater than 75 µM. The TGI (SNB-75 CNS) was > 75 µM and 68.3 µM, the GI50 (EKVX NSCLC) was greater than 75 µM and the TGI (EKVX NSCLC) was > 75 µM and 44.2 µM. For the same molecule, the GI50 (NCI-H226 lung) was 19.5 µM, the TGI (NCI-H226 lung) was 54.4 µM and 71.9 µM and the GI50 (SW-620 colon) was 13.9 µM. For the same molecule, the TGI (SW-620 colon) was 28.9 µM and 42.6 µM, the GI50 (SF-539 CNS) was 14.5 µM and the TGI (SF-539 CNS) was 26.9 µM and > 76.5 µM. For the same molecule, the GI50 (SNB-19 CNS) was greater than 75 µM, the TGI (SNB-19 CNS) was > 75 µM and 68.1 µM and the GI50 (HOP-92 NSCLC) was 18.4 µM. The TGI (HOP-92 NSCLC) was 57.9 µM and > 95.9 µM, the TGI (XF 498 CNS) was 33 µM and the TGI (UACC-257 melanoma) was greater than 85.9 µM.
